Laboratory results taken from US20220125745A1, “PHARMACEUTICAL COMPOSITION FOR CO-ADMINISTRATION OF ACIDOSIS-INDUCING DRUG” (HAIM BIO CO., LTD., priority 2018, published 2022).
Read-outs that look alike come from different tables or passages of the source.

Columns and labels:
[1] = tested on: L132 cells (normal cells); experiment: Lactate assay (luminescence) in L132 cells, candidate substance alone or combined with a substance that causes lactic acidosis; assay type: cell-based; conditions: L132; for Luminescence intensity (%), Berberine (10 μM) − / Luminescence intensity (%), Linezolid (200 μM) − / Luminescence intensity (%), Phenformin (100 μM) − / activity at 50 µM: candidate 50 μM alone, 24 h, vs negative control, mean ± SEM; for activity at 50 µM: Homo sapiens
Protocol: (§1) To identify the effects of administration of the candidate substances for lactic acidosis treatment as described in Example 1 in combination with the above-mentioned substances that cause lactic acidosis, A549 cells (cancer cells) or L132 cells (normal cells) were respectively seeded in 96- or 24-well plates at a concentration of 1×10^4 or 3×10^5 cells/well, and incubation was performed overnight. Administration of the candidate substance for acidosis treatment in combination with the substance that causes lactic acidosis was performed and incubation was further performed for 24 hours. For the candidate substances for acidosis treatment, each substance was administered at a uniform concentration of 50 μM; and for the substances that cause lactic acidosis, metformin was administered at 1 to 100 μM, isoniazid was administered at 1 to 500 μM, berberine was administered at 10 μM, linezolid was administered at 200 μM, and phenformin was administered at 100 μM. All substances were dissolved in dimethyl sulfoxide (DMSO, Sigma-Aldrich Corporation, St. Louis, Mo., USA), and the substances to be administered in combination were administered simultaneously. Subsequently, 50 μl of the cell culture solution obtained by being diluted with Dulbecco's Phosphate-Buffered Saline (DPBS; Wellgene, Korea), and 50 μl of the lactate assay reaction buffer (Promega, Madison, Wis., USA) were mixed and the mixture was added in a 96-well plate. Reaction was allowed to proceed at room temperature for 1 hour. Then, luminescence was measured with a spectrophotometer (Synergy HTX Multi-Reader; BioTek, Winooski, Vt., USA). At the same time, the number of cells in each sample was measured with a cell viability analysis kit (Cell Counting Kit-8; Dojindo Molecular Technologies, Inc., Kumamoto, Japan), and calculation was performed so that the lactic acid measurement value in each sample could be compared with that in the negative control for the same number of cells.

[2] = tested on: A549 cells (cancer cells); experiment: Lactate assay (luminescence) in A549 cells, candidate substance alone or combined with a substance that causes lactic acidosis; assay type: cell-based; conditions: A549; for Luminescence intensity (%), Berberine (10 μM) − / Luminescence intensity (%), Linezolid (200 μM) − / Luminescence intensity (%), Phenformin (100 μM) − / activity at 50 µM: candidate 50 μM alone, 24 h, vs negative control, mean ± SEM; for activity at 50 µM: Homo sapiens
Protocol: as §1

[3] = candidate 50 μM + berberine 10 μM, relative to berberine alone (PC)
[4] = candidate 50 μM + linezolid 200 μM, relative to linezolid alone (PC)
[5] = candidate 50 μM + phenformin 100 μM, relative to phenformin alone (PC)
[6] = no berberine, read-out: Luminescence intensity (%), Berberine (10 μM) −
[7] = no linezolid, read-out: Luminescence intensity (%), Linezolid (200 μM) −
[8] = no phenformin, read-out: Luminescence intensity (%), Phenformin (100 μM) −

Row | SMILES | Lactic acid value vs. PC (%) [1, 3] [%] | Lactic acid-decreasing rate vs. PC (%) [1, 3] [%] | Lactic acid value vs. PC (%) [1, 4] [%] | Lactic acid-decreasing rate vs. PC (%) [1, 4] [%] | Lactic acid value vs. PC (%) [1, 5] [%] | Lactic acid-decreasing rate vs. PC (%) [1, 5] [%] | Luminescence intensity (%), Berberine (10 μM) − ([1]; no berberine) [%] | Luminescence intensity (%), Linezolid (200 μM) − ([1]; no linezolid) [%] | Lactic acid value vs. PC (%) [2, 3] [%] | Lactic acid-decreasing rate vs. PC (%) [2, 3] [%] | Lactic acid value vs. PC (%) [2, 4] [%] | Lactic acid-decreasing rate vs. PC (%) [2, 4] [%] | Lactic acid value vs. PC (%) [2, 5] [%] | Lactic acid-decreasing rate vs. PC (%) [2, 5] [%] | activity at 50 µM [1, 6] [%] | activity at 50 µM [1, 7] [%] | activity at 50 µM [1, 8] [%] | activity at 50 µM [2, 6] [%] | activity at 50 µM [2, 7] [%] | activity at 50 µM [2, 8] [%] | also measured
1 | Nc1c(O)cccc1C(=O)CC(N)C(=O)O (racemic) [3-hydroxy-DL-kynurenine, 3-Hydroxy-DL-kynurenine] | 87.31 | 12.69 | 86.39 | 13.61 | 91.76 | 8.24 | 87.48 ± 1.65 | 87.48 ± 1.65 | 92.55 | 7.45 | 83.68 | 16.32 | 91.34 | 8.66 |  |  |  |  |  |  | Luminescence intensity (%), Phenformin (100 μM) − ([1]; no phenformin): 87.48 ± 1.65 %; Luminescence intensity (%), Berberine (10 μM) − ([2]; no berberine): 91.52 ± 1.46 %; Luminescence intensity (%), Linezolid (200 μM) − ([2]; no linezolid): 91.52 ± 1.46 %; Luminescence intensity (%), Phenformin (100 μM) − ([2]; no phenformin): 91.52 ± 1.46 %
2 | CCCCNC(=O)n1c(NC(=O)OC)nc2ccccc21 [Benomyl] | 85.38 | 14.62 | 84.83 | 15.17 | 93.03 | 6.97 |  |  | 88.55 | 11.45 | 84.32 | 15.68 | 92.74 | 7.26 | 85.4 ± 1.55 | 85.4 ± 1.55 | 85.4 ± 1.55 | 87.7 ± 1.21 | 87.7 ± 1.21 | 87.7 ± 1.21 | 
3 | N.N.[Cl][Pt][Cl] [CDDP, Cis-diamminedichloridoplatinum] | 71.42 | 28.58 | 68.28 | 31.72 | 83.98 | 16.02 | 76.97 ± 2.13 | 76.97 ± 2.13 | 74.20 | 25.80 | 78.37 | 21.63 | 80.03 | 19.97 |  |  |  |  |  |  | Luminescence intensity (%), Phenformin (100 μM) − ([1]; no phenformin): 76.97 ± 2.13 %; Luminescence intensity (%), Berberine (10 μM) − ([2]; no berberine): 75.98 ± 2.34 %; Luminescence intensity (%), Linezolid (200 μM) − ([2]; no linezolid): 75.98 ± 2.34 %; Luminescence intensity (%), Phenformin (100 μM) − ([2]; no phenformin): 75.98 ± 2.34 %
4 | CS(=O)(=O)Nc1ccc(-c2coc3cc(OCc4cccc(C(=O)O)c4)ccc3c2=O)cc1 [CVT-10216, 3-[[[3-[4-[(methylsulfonyl)amino]phenyl]-4-oxo-4H-chromen-7-yl]oxy]methyl]benzoic acid] | 103.15 | −3.15 | 100.28 | −0.28 | 99.21 | 0.79 |  |  | 95.79 | 4.21 | 92.93 | 7.07 | 92.13 | 7.87 | 97.7 ± 1.1 | 97.7 ± 1.1 | 97.7 ± 1.1 | 96.5 ± 1.04 | 96.5 ± 1.04 | 96.5 ± 1.04 | 
5 | CCCNC(=O)NS(=O)(=O)c1ccc(Cl)cc1 [Chlorpropamide] | 102.38 | −2.38 | 90.11 | 9.89 | 96.68 | 3.32 |  |  | 90.69 | 9.31 | 86.81 | 13.19 | 94.87 | 5.13 | 92.4 ± 1.05 | 92.4 ± 1.05 | 92.4 ± 1.05 | 97 ± 1.24 | 97 ± 1.24 | 97 ± 1.24 | 
6 | CC(C)=CCCC(C)=CC=O [Citral] | 102.03 | −2.03 | 102.02 | −2.02 | 99.57 | 0.43 |  |  | 95.67 | 4.33 | 103.20 | −3.20 | 93.80 | 6.20 | 102.4 ± 0.98 | 102.4 ± 0.98 | 102.4 ± 0.98 | 100.5 ± 0.81 | 100.5 ± 0.81 | 100.5 ± 0.81 | 
7 | N#CN [Cyanamide] | 99.86 | 0.14 | 88.99 | 11.01 | 98.19 | 1.81 |  |  | 96.56 | 3.44 | 87.76 | 12.24 | 98.83 | 1.17 | 92.1 ± 1.56 | 92.1 ± 1.56 | 92.1 ± 1.56 | 97.02 ± 0.81 | 97.02 ± 0.81 | 97.02 ± 0.81 | 
8 | CCN(CC)c1ccc(C=O)cc1 [DEAB, Diethylaminobenzaldehyde] | 106.10 | −6.10 | 105.21 | −5.21 | 92.79 | 7.21 | 93.41 ± 2.71 | 93.41±2.71 | 91.95 | 8.05 | 87.66 | 12.34 | 94.28 | 5.72 |  |  |  |  |  |  | Luminescence intensity (%), Phenformin (100 μM) − ([1]; no phenformin): 93.41 ± 2.71 %; Increase of lactic acid level as compared to the positive control group ([1]; in combination with linezolid, stated in text as an increase): 5.21%; Luminescence intensity (%), Berberine (10 μM) − ([2]; no berberine): 96.72 ± 0.78 %; Luminescence intensity (%), Linezolid (200 μM) − ([2]; no linezolid): 96.72 ± 0.78 %; Luminescence intensity (%), Phenformin (100 μM) − ([2]; no phenformin): 96.72 ± 0.78 %
